# Measurements as given in patent EP0777471B1, “INHIBITION OF LEUKOTRIENE BIOSYNTHESIS WITH UREA DERIVATIVES” (MINNESOTA MINING AND MANUFACTURING COMPANY, priority 1994, dated 1996).
# Where “and” joins values, the source holds several entries; their conditions need not be identical. Equal entries are not always repeated. Where two headings read alike, the source gives them in different places.
# Assays:
# [1] = tested on: production of Leukotriene B4; assay: Rat ex vivo Leukotriene B4 inhibition (oral dosing, blood challenged with A23187); type: in vivo, Rats; settings: two hours post dose
# Experimental: The test method described below measures the ability of a compound when administered orally to rats to inhibit the production of Leukotriene B4 in their blood which is drawn and challenged.
# Rats (CD, male, non-fasted, 250 g) are lightly anesthetized with carbon dioxide and an approximately 0.75 mL sample of whole blood is obtained via cardiac puncture. The sample is dispensed into 12 X 75 mm polypropylene tubes containing 8-10 µL of 10,000 units/mL heparin, mixed and then maintained on ice. The rats are allowed to recover approximately one hour then dosed orally with compound dissolved in PEG 400 at a 5 mL/Kg volume. Five (5) rats are utilized per group. Two (2) hours post dose the rats are again anesthetized with carbon dioxide and the blood sampled again via cardiac puncture.
# Duplicate 200 µL portions of blood are added to 1.0 mL polypropylene tubes. A 10 µL portion of 1mM A23187 Calcium Ionophore in dimethyl sulfoxide/Tris buffer is added to each tube. The tubes are gently vortexed then incubated in a 37°C water bath for 30 minutes. The tubes are then centrifuged at 4000 rpm for 10 minutes. 50 µL portions of plasma are transferred to 1.0 mL tubes containing 200 µL of methanol. The tubes are vortexed then placed in the freezer overnight.
# The tubes are removed from the freezer then centrifuged at 4000 rpm for 10 minutes. […] portions of the methanol/plasma supernatant and 10 µL methanol dilutions of LTB4 standard curve are transferred to 96 well v-bottom microtiter plates. The plates are vacuum dried at 40°C. A 40 µL portion of LTB4 radioimmunoassay buffer is added to each well. The plate is bath sonicated for 5 minutes then assayed according to the manufacturer's (Advanced Magnetics; Cambridge, MA) instructions. Percent inhibition values are obtained by comparing the level of LTB4 in the post-dose samples to the level in the pre-dose samples according to the equation below. % Inhibition =((LTB4 pre-dose) - (LTB4 post-dose))/((LTB4 pre-dose))X 100 [formula]
# [2] = tested on: production of Leukotriene C4 in mouse peritoneal macrophages; assay: In vitro mouse peritoneal macrophage Leukotriene C4 inhibition (zymosan-stimulated, LTC4 radioimmunoassay); type: cell-based; settings: Zymosan 50 µg/mL
# Experimental: The test method described below measures the ability of compounds to inhibit the production of Leukotriene C4 in mouse peritoneal macrophages.
# Mice (female, CD-1, weighing 25 g) are euthanized by exposure to carbon dioxide. The peritoneal cavity is exposed by peeling back the abdominal skin. A 5 mL portion of media (M199 containing 1% fetal bovine serum, 100 units/mL of penicillin, 100 µg/mL of streptomycin, 20 units/mL of heparin and no glutamine) is injected into the exposed peritoneal cavity of each mouse. The lavage fluid is removed and pooled to yield approximately1 X 10^6 macrophages/mL. A 2 mL portion of lavage fluid is added to each well of a 24 well sterile multidish and the macrophages are allowed to adhere to the plate for 2 hours at 37°C in a 5% carbon dioxide atmosphere. The media is removed and each well is washed with 2 mL of phosphate buffered saline (PBS). A 1 mL portion of media, without heparin, but containing 5 µCi/mL of 3H-myoinositol is added to each well and the plates are incubated overnight at 37°C in a 5% carbon dioxide atmosphere. The media is removed and the cells are washed twice with 2 mL portions of PBS. A 1 mL portion of Puck's saline formulation A containing 1 mM calcium chloride, 1 mM magnesium chloride and 10 mM lithium chloride is added to each well. (The Puck's formulation is made first as a 10X solution which contains 4 g of potassium chloride, 80 g of sodium chloride and 10 g of glucose per liter. The Puck's saline formulation A is made using 10 mL of the 10X Puck's formulation, 0.47 mL of 7.5% sodium bicarbonate and 2 mL of 1M N-2-hydroxyethylpiperazine-N'-2-ethanesulfonic acid per 100 mL.)
# Compounds are dissolved in dimethyl sulfoxide. Compounds are tested at concentrations of 10, 1 and 0.1 µM. Each concentration is tested in duplicate.
# A 1 µL portion of compound solution or vehicle (DMSO) is added to each well and the plates are incubated for 15 minutes at 37°C in a 5% carbon dioxide atmosphere. Zymosan is then added to provide a final concentration of 50 µg/mL in each well and the plate is incubated for 1 to 2 hours at 37°C in a 5% carbon dioxide atmosphere.
# Following incubation 200 µL portions of media are transferred to 12 X 75 mm tubes. The tubes are either assayed immediately or stored at -20°C until they can be assayed.
# The media is assayed for the presence of Leukotriene C4 by radioimmunoassay which is performed according to the manufacturer's (Advanced Magnetics; Cambridge, MA) instructions.
# [3] = tested on: production of Leukotriene B4 (LTB4); assay: Dog ex vivo Leukotriene B4 inhibition (oral dosing, blood challenged with calcium ionophore); type: in vivo, beagle dogs; settings: each entry one dog, negative = stimulation of LTB4 production; for % Inhibition 1 hour / % Inhibition 2 hour / % Inhibition 4 hour / % Inhibition 6 hour: 5 mg/Kg; for % Inhibition 4 hour: 4 hour post dose; for % Inhibition 6 hour: 6 hour post dose; for inhibition at 5 mg/kg: Canis lupus familiaris, po
# Experimental: The test method described below measures the ability of a compound when administered orally to dogs to inhibit the production of Leukotriene B4 (LTB4) in their blood which is drawn and challenged at selected time points.
# The test is conducted in beagle dogs (male and female; about 10 Kg). Prior to starting, the neck area of the beagle is shaved to allow easy access to the jugular vein. A 3-4 mL sample of blood is drawn from the jugular vein into a heparinized vacutainer. The dog is then dosed using a tube long enough to reach its stomach. The compound is dissolved in PEG 400 at a concentration such that the appropriate dose can be administered in approximately 5 mL. Immediately after the compound is given, a flush using 5 mL of vehicle is given to rinse the dosing tube. At selected time points following the dose, a 3-4 mL sample of blood is drawn.
# The blood samples that have been drawn are challenged as soon as possible. A 0.5 mL portion of blood is aliquoted into 3 tubes (1 mL microtiter tubes). A 1 µL portion of 25 mM calcium ionophore in dimethyl sulfoxide is added to 2 of the tubes. A 1 µL portion of dimethyl sulfoxide is added to the third tube. The tubes are lightly mixed then placed in a 37°C water bath for 30 minutes. The tubes are centrifuged at 11,000 rpm for 3 minutes and the plasma supernatant is transferred to clean tubes. A 50 µL portion of this plasma is added to a I mL microtiter tube containing 200 µL of methanol. The tubes are placed in the freezer at -20°C for at least 1 hour then centrifuged at 2000 rpm for 10 minutes. A 10 µL portion of the methanol supematant is dried under vacuum at ambient temperature and then reconstituted in LTB4 buffer. The amount of LTB4 in the sample is determined by radioimmunoassay performed according to the manufacturer's (Advanced Magnetics; Cambridge, MA) instructions. Percent inhibition values are obtained by comparing the level of LTB4 in the post-dose sample to the level in the pre-dose sample according to the equation below. % Inhibition =((LTB4 predose) - (LTB4 postdose))/((LTB4 predose))X 100 [formula]
# A number of the compounds that are useful in the practice of the method of the invention were tested. The results are shown in Table 15 below where each entry represents the results from one dog. A negative number indicates stimulation of LTB4 production. All compounds were tested at a dose of 5 mg/Kg.
# [4] = 1 h, 1 hour post dose, read-out: % Inhibition 1 hour
# [5] = 2 h, 2 hour post dose, read-out: % Inhibition 2 hour
structure (smiles),measurement,setting,value
"CCCCc1ccc(NC(=O)N(C)O)cc1 [Compound 12, 3-(4-butylphenyl)-1-hydroxy-1-methylurea]",%I,[1]; 50 mg/Kg,42%
"CN(O)C(=O)Nc1ccc(Oc2ccccc2)cc1 [Compound 14, 1-hydroxy-1-methyl-3-(4-phenoxyphenyl)urea]",IC50,[2],< 1000 nM
"CCCCc1ccc(NC(=O)N(O)C(C)C)cc1 [Compound 27, 3-(4-butylphenyl)-1-hydroxy-1-(1-methylethyl)urea]",%I,[1]; 10 mg/Kg,23%
same,%I,[1]; 25 mg/Kg,5%
same,%I,[1]; 50 mg/Kg,53% and 75%
"COc1ccc(OC)c(NC(=O)N(O)C(C)C)c1 [Compound 28, 3-(2,5-dimethoxyphenyl)-1-hydroxy-1-(1-methylethyl)urea]",%I,[1]; 50 mg/Kg,29%
"COc1ccccc1NC(=O)N(O)C(C)C [Compound 29, 1-hydroxy-3-(2-methoxyphenyl)-1-(1-methylethyl)urea]",%I,[1]; 50 mg/Kg,61%
"CCC(CC)N(O)C(=O)Nc1ccc(Br)cc1 [Compound 41, 3-(4-Bromophenyl)-1-(1-ethylpropyl)-1-hydroxyurea]",%I,[1]; 50 mg/Kg,14%
"CCC(CC)N(O)C(=O)Nc1ccccc1 [Compound 42, 1-(1-Ethylpropyl)-1-hydroxy-3-phenylurea]",% Inhibition 1 hour,[3]; 1 hour post dose,98% and 100%
same,% Inhibition 2 hour,[3]; 2 hour post dose,100%
same,% Inhibition 4 hour,[3],97% and 100% and -91%
same,% Inhibition 6 hour,[3],78% and 85% and 91% and -150%
same,inhibition at 5 mg/kg,[3]; [4],99%
same,inhibition at 5 mg/kg,[3]; [5],99%
same,%I,[1]; 50 mg/Kg,4%
"CCOCCN(O)C(=O)Nc1ccccc1 [Compound 45, 1-(2-ethoxyethyl)-1-hydroxy-3-phenylurea]",%I,[1]; 50 mg/Kg,6%
"O=C(Nc1ccccc1)N(O)C1CCCC1 [Compound 46, 1-cyclopentyl-1-hydroxy-3-phenylurea]",% Inhibition 1 hour,[3]; 1 hour post dose,77%
same,% Inhibition 2 hour,[3]; 2 hour post dose,58%
same,% Inhibition 4 hour,[3],11% and 2%
same,% Inhibition 6 hour,[3],-23% and 46%
same,inhibition at 5 mg/kg,[3]; [4],80%
same,inhibition at 5 mg/kg,[3]; [5],64%
same,%I,[1]; 50 mg/Kg,17%
"CCCCC(CC)CN(O)C(=O)Nc1ccccc1 (centres unmarked) [Compound 47, 1-(2-ethylhexyl)-1-hydroxy-3-phenylurea]",%I,[1]; 50 mg/Kg,16%
"CC(C)(C)CCN(O)C(=O)Nc1ccccc1 [Compound 48, 1-(3,3-dimethylbutyl)-1-hydroxy-3-phenylurea]",%I,[1]; 50 mg/Kg,2%
"CCCCCN(O)C(=O)Nc1ccc(CCCC)cc1 [Compound 57, 3-(4-Butylphenyl)-1-hydroxy-1-pentylurea]",%I,[1]; 50 mg/Kg,35%
"CC(C)N(O)C(=O)Nc1cccc(S(C)(=O)=O)c1 [Compound 60, 1-Hydroxy-1-(1-methylethyl)-3-[3-(methylsulfonyl)phenyl]urea]",% Inhibition 1 hour,[3]; 1 hour post dose,97%
same,% Inhibition 2 hour,[3]; 2 hour post dose,52%
same,% Inhibition 4 hour,[3],-79% and 49%
same,% Inhibition 6 hour,[3],-95% and 76%
same,inhibition at 5 mg/kg,[3]; [4],100%
"CC(C)N(O)C(=O)Nc1cccc([S+](C)[O-])c1 (centres unmarked) [Compound 61, 1-Hydroxy-1-(1-methylethyl)-3-[3-(methylsulfinyl)phenyl]urea]",% Inhibition 2 hour,[3]; 2 hour post dose,99%
same,% Inhibition 4 hour,[3],29% and -2%
same,% Inhibition 6 hour,[3],-32% and 22%
same,inhibition at 5 mg/kg,[3]; [4],100%
same,inhibition at 5 mg/kg,[3]; [5],100%
"CN(O)C(=O)Nc1ccc([S+](C)[O-])cc1 (centres unmarked) [Compound 64, 1-Hydroxy-1-methyl-3-[4-(methylsulfinyl)phenyl]urea]",%I,[1]; 50 mg/Kg,88%
"CN(O)C(=O)Nc1ccc(S(C)(=O)=O)cc1 [Compound 65, 1-Hydroxy-1-methyl-3-[4-(methylsulfonyl)phenyl]urea]",%I,[1]; 50 mg/Kg,93%
"COc1cc(NC(=O)N(O)C(C)C)cc(OC)c1OC [Compound 66, 1-Hydroxy-1-(1-methylethyl)-3-(3,4,5-trimethoxyphenyl)urea]",%I,[1]; 50 mg/Kg,61%
"CCCC(C)N(O)C(=O)Nc1ccccc1 (centres unmarked) [Compound 68, 1-Hydroxy-1-(1-methylbutyl)-3-phenylurea]",IC50,[2],< 1000 nM
"CCC(CC)N(O)C(=O)Nc1ccc(Oc2ccccc2)cc1 [Compound 72, 1-Hydroxy-1-(1-ethylpropyl)-3-(4-phenoxyphenyl)urea]",IC50,[2],< 1000 nM
"CCC(CC)N(O)C(=O)Nc1cc(C(F)(F)F)cc(C(F)(F)F)c1 [Compound 73, 1-Hydroxy-1-(1-ethylpropyl)-3-(3,5-bis(trifluoromethyl)phenyl)urea]",IC50,[2],< 1000 nM
"CCC(CC)N(O)C(=O)Nc1ccc(C(=O)c2ccccc2)cc1 [Compound 79, 1-Hydroxy-1-(1-ethylpropyl)-3-(4-benzoylphenyl)urea]",IC50,[2],< 1000 nM
"CCC(CC)N(O)C(=O)Nc1ccc(OCc2ccccc2)cc1 [Compound 80, 1-Hydroxy-1-(1-ethylpropyl)-3-(4-benzyloxyphenyl)urea]",IC50,[2],< 1000 nM
"CCC(CC)N(O)C(=O)Nc1ccc(OCC2CCCCC2)cc1 [Compound 81, 1-Hydroxy-1-(1-ethylpropyl)-3-[4-(cyclohexylmethoxy)phenyl]urea]",IC50,[2],< 1000 nM
"CCC(CC)N(O)C(=O)Nc1ccc(OCCCc2ccccc2)cc1 [Compound 82, 1-Hydroxy-1-(1-ethylpropyl)-3-[4-(3-phenylpropyloxy)phenyl]urea]",IC50,[2],< 1000 nM
"CCC(CC)N(O)C(=O)Nc1ccc(-c2ccccc2)cc1 [Compound 83, 1-Hydroxy-1-(1-ethylpropyl)-3-(biphenyl-4-yl)urea]",IC50,[2],< 1000 nM
